Reference: patent publication US9062028B2, “Bicyclic nitrogen containing heteroaryl TGR5 receptor modulators” (Bristol-Myers Squibb Company, priority 2011, dated 2015)
Structures can show the parent of a compound that is named as a salt.

molecular target: T1, recombinant human TGR5 (Homo sapiens, UniProt Q8TDU6); assay: cAMP assay (cAMP accumulation, HTRF) in CHOK1 cells stably expressing TGR5; type: cell-based; conditions: CHOK1 cells stably expressing human TGR5, 30 minutes at RT, 1% DMSO
T1 construct: expressed in transfected cells
T1 sequence (Q8TDU6 1-330): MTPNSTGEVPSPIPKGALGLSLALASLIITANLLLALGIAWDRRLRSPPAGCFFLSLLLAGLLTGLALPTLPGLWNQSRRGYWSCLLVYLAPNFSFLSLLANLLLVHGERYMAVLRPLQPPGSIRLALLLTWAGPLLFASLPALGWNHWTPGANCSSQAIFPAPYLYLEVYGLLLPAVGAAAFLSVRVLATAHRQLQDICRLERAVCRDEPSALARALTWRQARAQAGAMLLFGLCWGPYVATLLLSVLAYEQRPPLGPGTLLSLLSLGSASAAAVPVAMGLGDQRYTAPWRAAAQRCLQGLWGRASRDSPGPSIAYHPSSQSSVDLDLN
Summary of the method: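 CHOK1 cells stably expressing TGR5 (text also calls it chimeric human/mouse), 0.4-0.5×10^6 cells/mL in PBS with Ca/Mg and 0.1 mM IBMX, compound 30 min at RT, 1% DMSO. cAMP by HTRF 665/620 interpolated to a standard curve; EC50 from 4-parameter fit as half-maximal increase.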

EC50 [nM] | Structure (SMILES)
50 | Cc1cccc(OCCCC(=O)N2CC3CC3c3c(-c4cnn(Cc5c(F)cc(C(=O)NCS(=O)(=O)O)cc5Cl)c4)cccc32)c1C (stereo not shown) [Example 69B, (3-Chloro-4-((4-(3-(4-(2,3-dimethylphenoxy)butanoyl)-1a,2,3,7b-tetrahydro-1H-cyclopropa[c]quinolin-7-yl)-1H-pyrazol-1-yl)methyl)-5-fluorobenzamido)methanesulfonic acid]
643 | Cc1cccc(OCCCC(=O)N2CCCc3c(-c4cnn(Cc5cccc(C(=O)NCCS(=O)(=O)O)c5)c4C)cccc32)c1C [Example 168J, 2-(3-((4-(1-(4-(2,3-Dimethylphenoxy)butanoyl)-1,2,3,4-tetrahydroquinolin-5-yl)-5-methyl-1H-pyrazol-1-yl)methyl)benzamido) ethanesulfonic acid]
611 | Cc1cccc(OCCCC(=O)N2CCCc3c(-c4cccc(COC(=O)NCCC(=O)O)c4)cccc32)c1C [Example 43, 3-((3-(1-(4-(2,3-Dimethylphenoxy)butanoyl)-1,2,3,4-tetrahydroquinolin-5-yl)benzyloxy)carbonylamino)propanoic acid]
52 | Cc1cccc(OCCCC(=O)N2CC3CC3c3c(-c4cnn(Cc5cc(C(=O)O)ccc5Cl)c4)cccc32)c1C (stereo not shown) [Example 69H, 4-Chloro-3-((4-(3-(4-(2,3-dimethylphenoxy)butanoyl)-1a,2,3,7b-tetrahydro-1H-cyclopropa[c]quinolin-7-yl)-1H-pyrazol-1-yl)methyl)benzoic acid]
173 | Cc1cccc(OCCCC(=O)N2CCCc3c(-c4cnn(Cc5cccc(C(=O)N6CCC(CO)CC6)c5)c4)cccc32)c1C [Example 836, 4-(2,3-Dimethylphenoxy)-1-(5-(1-(3-(4-(hydroxymethyl)piperidine-1-carbonyl)benzyl)-1H-pyrazol-4-yl)-3,4-dihydroquinolin-1(2H)-yl)butan-1-one]
188 | Cc1c(Cl)cccc1OCCOC(=O)N1CCSc2c(-c3cnn(Cc4cccc(C(=O)NCCS(=O)(=O)O)c4Cl)c3)cccc21 [Example 626, 2-(2-Chloro-3-((4-(4-((2-(3-chloro-2-methylphenoxy)ethoxy)carbonyl)-3,4-dihydro-2H-benzo[b][1,4]thiazin-8-yl)-1H-pyrazol-1-yl)metehyl)benzamido)ethanesulfonic acid]
40 | Cc1c(Cl)cccc1OCCCC(=O)N1CCSc2c(-c3cnn(Cc4cccc(C(=O)O)c4)c3)cccc21 [Example 354, 3-((4-(4-(4-(3-Chloro-2-methylphenoxy)butanoyl)-3,4-dihydro-2H-benzo[b] [1,4]thiazin-8-yl)-1H-pyrazol-1-yl)methyl)benzoic acid]
3950 | Cc1cccc(OCCCC(=O)N2CCCc3c(-c4cccc(COC(=O)N[C@H](Cc5c[nH]cn5)C(=O)O)c4)cccc32)c1C [Example 288, (R)-2-((3-(1-(4-(2,3-Dimethylphenoxy)butanoyl)-1,2,3,4-tetrahydroquinolin-5-yl)benzyloxy)carbonylamino)-3-(1H-imidazol-4-yl)propanoic acid]
45 | Cc1c(Cl)cccc1OCCOC(=O)N1C[C@@H]2C[C@@H]2c2c(-c3cnn(Cc4cc(C(=O)N[C@@H](CCC[N+](C)(C)C)C(=O)O)ccc4Cl)c3)cccc21 [Example 690, (S)-4-Carboxy-4-(4-chloro-3-((4-((1aR,7bS)-3-((2-(3-chloro-2-methylphenoxy)ethoxy)carbonyl)-1a,2,3,7b-tetrahydro-1H-cyclopropa[c]quinolin-7-yl)-1H-pyrazol-1-yl)methyl)benzamido)-N,N,N-trimethylbutan-1-aminium, TFA salt]
54 | Cc1cccc(OCCCC(=O)N2CC3CC3c3c(-c4cnn(Cc5c(F)cc(C(=O)NCCC[C@H](NC(=N)N)C(=O)O)cc5Cl)c4)cccc32)c1C (stereo partly drawn) [Example 69F, (2S)-5-(3-Chloro-4-((4-(3-(4-(2,3-dimethylphenoxy)butanoyl)-1a,2,3,7b-tetrahydro-1H-cyclopropa[c]quinolin-7-yl)-1H-pyrazol-1-yl)methyl)-5-fluorobenzamido)-2-guanidinopentanoic acid]
195 | Cc1cccc(OCCCC(=O)N2CCCc3c(-c4cnn(Cc5cccc(NC(=O)C(N)C(O)(C(F)(F)F)C(F)(F)F)c5)c4)cccc32)c1C (stereo not shown) [Example 500, 2-Amino-N-(3-((4-(1-(4-(2,3-dimethylphenoxy)butanoyl)-1,2,3,4-tetrahydroquinolin-5-yl)-1H-pyrazol-1-yl)methyl)phenyl)-4,4,4-trifluoro-3-hydroxy-3-(trifluoromethyl) butanamide]
171 | Cc1c(Cl)cccc1OCCOC(=O)N1C[C@@H]2C[C@@H]2c2c(-c3cnn(Cc4ccc(C(=O)O)cc4Cl)c3)cccc21 [Example 436, 3-Chloro-4-((4-((1aR,7bS)-3-((2-(3-chloro-2-methylphenoxy)ethoxy)carbonyl)-1a,2,3,7b-tetrahydro-1H-cyclopropa[c]quinolin-7-yl)-1H-pyrazol-1-yl)methyl)benzoic acid]
32 | CCOC(=O)CNC(=O)Nc1cccc(Cn2cc(-c3cccc4c3[C@H]3C[C@H]3CN4C(=O)CCCOc3cccc(Cl)c3C)cn2)c1 [Example 914, Ethyl 2-(3-(3-((4-((1aR,7bS)-3-(4-(3-chloro-2-methylphenoxy)butanoyl)-1a,2,3,7b-tetrahydro-1H-cyclopropa[c]quinolin-7-yl)-1H-pyrazol-1-yl)methyl)phenyl)ureido)acetate]
31 | Cc1c(Cl)cccc1OCCCC(=O)N1CCSc2c(-c3cnn(Cc4c(F)cc(C(=O)NCCC(=O)O)cc4Cl)c3)cccc21 [Example 577, 3-(3-Chloro-4-((4-(4-(4-(3-chloro-2-methylphenoxy)butanoyl)-3,4-dihydro-2H-benzo[b][1,4]thiazin-8-yl)-1H-pyrazol-1-yl)methyl)-5-fluorobenzamido)propanoic acid]
1530 | Cc1cccc(OCCCC(=O)N2CCCc3c(-c4cnn(Cc5cccc(C(=O)N(C)[C@@H](CC(=O)O)C(=O)O)c5)c4)cccc32)c1C [Example 481, (S)-2-(3-((4-(1-(4-(2,3-Dimethylphenoxy)butanoyl)-1,2,3,4-tetrahydroquinolin-5-yl)-1H-pyrazol-1-yl)methyl)-N-methylbenzamido)succinic acid]
49 | Cc1c(Cl)cccc1OCCCC(=O)N1CCCOc2c(-c3cnn(Cc4cccc(C(=O)NCS(=O)(=O)O)c4)c3)cccc21 [Example 146R, (3-((4-(5-(4-(3-Chloro-2-methylphenoxy)butanoyl)-2,3,4,5-tetrahydrobenzo[b][1,4]oxazepin-9-yl)-1H-pyrazol-1-yl)methyl)benzamido) methanesulfonic acid]
46 | Cc1c(Cl)cccc1OCCCC(=O)N1C[C@@H]2C[C@@H]2c2c(-c3cnn(Cc4cccc(C(=O)NCC(=O)O)c4)c3)cccc21 (single isomer, unassigned) [Example 244]
107 | Cc1cccc(OCCCC(=O)N2CCCc3c(-c4cnn(Cc5cccc(NC(=O)NCC(=O)O)c5)c4)cccc32)c1C [Example 83, 2-(3-(3-((4-(1-(4-(2,3-Dimethylphenoxy)butanoyl)-1,2,3,4-tetrahydroquinolin-5-yl)-1H-pyrazol-1-yl)methyl)phenyl)ureido)acetic acid]
2150 | Cc1c(Cl)cccc1OCCCC(=O)N1CCCc2c(-c3cnn(CC(=O)O)c3)cccc21 [Example 197, 2-(4-(1-(4-(3-Chloro-2-methylphenoxy)butanoyl)-1,2,3,4-tetrahydroquinolin-5-yl)-1H-pyrazol-1-yl)acetic acid]
